Test results from ChEMBL document CHEMBL1221362, “Dialkylaminoalkyl derivatives of bicyclic compounds with antiplasmodial activity” (Bioorg Med Chem, 2010).

Key:
Mus musculus [1] = assay: Toxicity in albino mouse assessed as mean survival days at 10 mg/kg, ip for 4 days; type: organism-based; set-up: dose 10 mg/kg, route intraperitoneal; conditions: in vivo, 96 h
Plasmodium falciparum = assay: Antiplasmodial activity against Plasmodium falciparum K1 infected in human blood by [3H]hypoxanthine incorporation assay; type: functional, organism-based
L6 = assay: Cytotoxicity against rat L6 cells; type: cell-based
[2] = Selectivity index, ratio of IC50 for rat L6 cells to IC50 for Plasmodium falciparum K1; type: toxicity, cell-based; conditions: read-out: Ratio IC50
Plasmodium berghei [3] = assay: Antimalarial activity against Plasmodium berghei ANKA infected in albino mice (Mus musculus) assessed as reduction in parasitemia at 50 mg/kg, intraperitoneal for 4 days; type: functional; set-up: scale not given: the % may be the effect or the level left
Mus musculus [4] = assay: Toxicity in albino mouse assessed as mean survival days at 50 mg/kg, ip for 4 days; type: organism-based; set-up: dose 50 mg/kg, route intraperitoneal; conditions: in vivo, 96 h
Plasmodium berghei [5] = assay: Antimalarial activity against Plasmodium berghei ANKA infected in albino mice (Mus musculus) assessed as reduction in parasitemia at 30 mg/kg, intraperitoneal for 4 days; type: functional; set-up: scale not given: the % may be the effect or the level left
Mus musculus [6] = assay: Toxicity in albino mouse assessed as mean survival days at 30 mg/kg, ip for 4 days; type: organism-based; set-up: dose 30 mg/kg, route intraperitoneal; conditions: in vivo, 96 h

Row | Structure (SMILES) | MSD (Mus musculus [1]) [days] | IC50 (Plasmodium falciparum) [nM] | IC50 (L6) [nM] | selectivity ratio [2] | Activity (Plasmodium berghei [3]) [%] | MSD (Mus musculus [4]) [days] | Activity (Plasmodium berghei [5]) [%] | MSD (Mus musculus [6]) [days]
1 | CCN(CC)CCCC(C)Nc1ccnc2cc(Cl)ccc12 (stereo unspecified) [CHLOROQUINE] | 20 | – | – | – | – | – | – | –
2 | O=C(CN1CCCC1)NC1CC2(N3CCCCC3)CC(c3ccccc3)C1C(c1ccccc1)C2 (stereo unspecified) | – | 110 | 21000 | 191 | – | – | – | –
3 | O=C(CCN1CCCCC1)N1CCC2(N3CCCCC3)CC(c3ccccc3)C1C(c1ccccc1)C2 (racemic) | – | 190 | 63900 | 336 | 36.5 | 6 | – | –
4 | CCN1CCN(CCN2CCC3(N4CCCCC4)CC(c4ccccc4)C2C(c2ccccc2)C3)CC1 (racemic) | – | 140 | 67500 | 482 | – | – | 0 | 7
5 | C[C@@H]1CC[C@H]2[C@@H](C)C(=O)O[C@@H]3O[C@@]4(C)CC[C@@H]1[C@]32OO4 [ARTEMISININ] | – | 6.4 | – | – | – | – | – | –
6 | CN(C)C12CCN(CCCN3CCCCC3)C(C(c3ccccc3)C1)C(c1ccccc1)C2 (racemic) | – | 360 | 58400 | 162 | – | – | – | –
7 | CCN1CCN(CCN2CCC3(N(C)C)CC(c4ccccc4)C2C(c2ccccc2)C3)CC1 (racemic) | – | 340 | 58000 | 170 | – | – | – | –
8 | CN(C)C12CCN(CCN3CCCC3)C(C(c3ccccc3)C1)C(c1ccccc1)C2 (stereo unspecified) | – | – | – | 136 | – | – | – | –
9 | c1ccc(C2CC3(N4CCCC4)CCN(CCN4CCCC4)C2C(c2ccccc2)C3)cc1 (stereo unspecified) | – | – | – | 116 | – | – | – | –
10 | O=C(CCN1CCCCC1)N1CCC2(N3CCCC3)CC(c3ccccc3)C1C(c1ccccc1)C2 (racemic) | – | 360 | 108000 | 300 | – | – | 27.2 | 6.7
11 | CCN1CCN(CCN2CCC3(N4CCCC4)CC(c4ccccc4)C2C(c2ccccc2)C3)CC1 (racemic) | – | 180 | 53600 | 298 | – | – | 8.9 | 7
12 | c1ccc(C2CC3(N4CCCCC4)CCN(CCCN4CCCCC4)C2C(c2ccccc2)C3)cc1 (racemic) | – | 120 | 138000 | 1150 | 30.4 | 8 | – | –
13 | c1ccc(C2CC3(N4CCCC4)CCN(CCCN4CCCCC4)C2C(c2ccccc2)C3)cc1 (racemic) | – | 100 | 28700 | 287 | – | – | 31 | 7
14 | CN(C)C12CCN(C(=O)CCN3CCCCC3)C(C(c3ccccc3)C1)C(c1ccccc1)C2 (racemic) | – | 1070 | 128000 | 120 | – | – | – | –
